In US20220273588A1, “MONOAMINE OXIDASE B INHIBITORS FOR USE IN THE PREVENTION OR TREATMENT OF PROSTATE CARCINOMA” (TOXIE EUROPE INTELLIGENS KÉMIAI SZENZOROKAT KUTATÓ, …, priority 2019, published 2022):

Legend:
[1] = tested on: androgen-sensitive and castration-resistant human prostate cells; conditions: literature preclinical study; cited from earlier work
LNCaP cells [2] = test: CellTiter-Glo (ATP level) viability assay on LNCaP cells; assay type: cell-based, human; conditions: for viability of LNCaP cells, summary of the study: concentration-dependent manner, 48 h; for viability of LNCaP cells: 48 hours of treatment
Procedure: (§1) RPMI-1640 (Lonza) medium with 10% heat-inactivated FBS (fetal bovine serum, Sigma) and 100 U/ml Penicillin/Streptomycin was used to grow the cells. Cells were treated with drugs freshly dissolved in RPMI medium. Treatment concentrations were determined by widening the concentration range. After 48 h of treatment, cell viability was also quantified using the MTS reduction assay (Promega) as well as a CellTiter-Glo kit (Promega) based on ATP level measurements.
(§2) The CellTiter-Glo assay based on ATP level measurements was performed according to the manufacturer's protocol of pipetting 100 microliters of Celliter-Glo reagent into wells containing 100 microliters of medium, then shaking for 2 minutes and incubating for another 10 minutes. The luminescence signal was then detected with a PerkinElmer AlphaLisa instrument.
To reproduce the literature data, we also used the unpaired t-test also used by Gordon et al (2014) to compare control and treated groups. […] For some results (LNCaP chlororlin MTS method and LNCaP rasagiline and selegiline CellTiter-Glo method) Kruskal-Wallis non-parametric one-way ANOVA method was used with Dunn test, while in other cases one-way ANOVA method was used with Bonferroni post hoc test.
(§3) In our experiments, we performed three parallel experiments, and the experiments were repeated to increase the number of items. For the statistical analysis of two separate experiments the results were pooled, however, the absolute values obtained during the luminescence measurements cannot be used to combine the results. This is because the CellTiter-Glo reagent loses its activity during storage and possible thaw-freeze cycles. Thus, a CellTiter-Glo reagent from a single source can give different relative luminescence values (RLUs) at the same cell number in two different experiments performed at different times. However, in one experiment, the RLU reliably gives the cell number, and accordingly, the percentage viability value of the treated condition relative to the control RLU can be determined with certainty; values from different experimental series can be combined.
(§4) During the evaluation, we normalized to the mean of the control of the given experiment, so the mean of the control was 100% and the percentage of each individual data point relative to the mean of the control was calculated accordingly. One-way ANOVA with Bonferroni post hoc test with p<0.05 significance level was used for statistical validation of viability changes as described above.

human PC3 xenograft = test: Tumor growth in NSG SCID mouse human PC3 xenograft model; assay type: in vivo; conditions: 10 mg/kg i.p. once daily from day 14, day 21
Text: For our experiments, we used 25 3-month-old male NOD (Non Obese Diabetic) SCID (Severe Combined ImmunoDeficiency) Gamma mice (National Institute of Oncology Animal House). Immunodeficiency in these mice (Shultz et al, 1995) is associated with decreased T and B lymphocyte and NK cell function, as well as deficiency is developed in cytokine signaling pathways, in adaptive and innate immune systems. During the experiment, the animals were housed in the animal house of the János Szentágothai Research Center of the University of Pecs, and they were provided with standard rodent food and tap water ad libitum. The animals were kept at 20-24° C., 50-60% relative humidity, in a 12-12 hour dark-light cycle. […]
RPMI-1640 (Lonza) medium with 10% heat-inactivated FBS (Sigma) and 100 U/ml Penicillin/Streptomycin was used to proliferate the PC3 cell line (Wesel, Germany), which was also used for in vitro experiments. […] Cell counts were determined after trypan blue staining with a LUNA II automated cell counter (Logos Biosystems) and 50 million cells were resuspended in 5 ml PBS. […]
On days 4, 7, 11, 14, 18, and 21 of the experiment, the length (a) and width (b) of the growing tumor were measured with a caliper, and then the tumor volume was calculated using the following formula (J B Wu et al., J Clin Invest., 124, 2891-2908): […]

LNCaP cells [3] = test: MTS reduction viability assay on LNCaP cells; assay type: cell-based, human; conditions: MTS method
Procedure: as §1
In the MTS reduction method (CellTiter 96® AQueous One Solution Cell Proliferation Assay, Promega Corp, Madison, […].), 20 microliters of MTS reagent was used per sample according to the manufacturer's protocol, and after 120 minutes of incubation, absorbance was measured at 492 nm with a microplate reader.
In the studies, we modified the protocol of Gordon et al (2014) as follows: • A volume of 20 microliters per well was used from the MTS reagent as recommended by the manufacturer (10 microliters were used by Grodon et al.). • In our case, an incubation time of 120 min was used to increase accuracy (Gordon et al incubated for 60 min). […] During validation, measurements were performed with a given number of cells per well, and absorbance values were plotted as a function of cell number. A calibration line was placed on the data points by linear regression analysis and the R^2 coefficient of determination was determined. […]

PC3 cells = test: CellTiter-Glo (ATP level) viability assay on PC3 cells; assay type: cell-based, human; conditions: 48 h; for viability of PC3 cells: CellTiter-Glo; for viability of PC3 cells, summary of the study: concentration-dependent manner
Procedure: as §1, §2
To support the applicability of the CellTiter-Glo viability assay method, we validated the method on a PC3 cell line. In this procedure, the measurement was performed with a given number of living cells per well, and the relative luminescence values obtained were plotted as a function of the cell number. A calibration line was placed on the data points by linear regression analysis, and based on the R2 value, it was determined that the relative luminescence value obtained during the measurement was directly proportional to the number of living cells (FIG. 1/C).
as §3, §4

[4] = tested on: PC3 prostate carcinoma cell line; test: CellTiter-Glo viability assay on PC3 cells, selegiline, docetaxel and combinations; assay type: cell-based, human; conditions: 48 hours
Procedure: In our studies, we used a […] PC3 prostate carcinoma cell line. The culture of the cell line and the study of the effect of the combination of docetaxel and selegiline were performed as previously described, with the changes detailed below.
Selegiline, docetaxel, and selegiline+docetaxel combination studies were performed in parallel, simultaneously, with the same reagents, on a cell population from the same cell culture. For the selegiline, docetaxel and selegiline+docetaxel combination studies, the following changes were applied from the protocol according to the examples of the application: • Treatments with selegiline alone were performed at concentrations ranging from 250 μM to 1 mM (250 μM, 500 μM, 750 μM, 1 mM), while docetaxel alone was administered at a concentration of 1 μM. For combination treatments, 1 μM docetaxel was added to the concentrations corresponding to the selegiline treatments (250 μM selegiline+1 μM docetaxel, 500 μM selegiline+1 μM docetaxel, 750 μM selegiline+1 μM docetaxel, 1 mM selegiline+1 μM docetaxel). • For docetaxel and combination treatments, a 0.01% dimethyl sulfoxide (DMSO) solution prepared with complete RPMI medium (10% FBS, 100 U/ml Penicillin/Streptomycin; solution for culturing and treating PC3 cells) was used as a control. This was used as a solvent control, corresponding to the use of DMSO to prepare a 10 mM docetaxel stock solution. Thus, the 1 μM docetaxel treatments we used also contained 0.01% DMSO. • The change in cell viability induced by selegiline, docetaxel, and combinations thereof was measured after 48 hours with the CellTiter-Glo kit as previously described. • The experiments were performed in 3 different series, and for evaluation they were combined with the previously described normalization. Briefly, during the evaluation, we normalized to the mean of the untreated control in the given experiment, so the mean of the control was 100% and the percentage of each individual data point relative to the mean of the control was calculated accordingly. Because treatments with selegiline and docetaxel alone or in combination were performed in one experiment, we normalized to the mean of the untreated control without DMSO. […] A Shapiro-Wilk and Kolmogorov-Smirnov normality test was performed on the data set, followed by a one-way ANOVA test with a Holm-Sidak's multiple comparison test.

[5] = tested on: metastatic castration-resistant disease; conditions: patients; cited from earlier work

C#CCN(C)CCCOc1ccc(Cl)cc1Cl [clorgylin]
growth and proliferation of androgen-sensitive and castration-resistant human prostate cells [1]: inhibited
growth of enzalutamide-resistant cells [1]: significantly reduced
viability of LNCaP cells, CellTiter-Glo compared with MTS method (LNCaP cells [2]; 48 h clorgylin treatment, CellTiter-Glo): results similar to the MTS method
viability of LNCaP cells, summary of the study (LNCaP cells [2]): significantly reduced
rate of tumor growth compared to the group treated with physiological saline (human PC3 xenograft): significantly reduced
viability of LNCaP cells (LNCaP cells [3]; 100 micromolar, 48 h of treatment): significantly reduced
viability of LNCaP cells, concentration dependence (LNCaP cells [3]; 48 h): concentration-dependent manner
viability of PC3 cells (PC3 cells; 1 mM): significantly reduced
viability of PC3 cells (PC3 cells; 100 micromolar): significantly reduced
viability of PC3 cells, summary of the study (PC3 cells): significantly reduced

CC(=O)O[C@@]12CO[C@@H]1C[C@H](O)[C@@]1(C)C(=O)[C@H](O)C3=C(C)[C@@H](OC(=O)[C@H](O)[C@@H](NC(=O)OC(C)(C)C)c4ccccc4)C[C@@](O)([C@@H](OC(=O)c4ccccc4)[C@H]21)C3(C)C [docetaxel]
cell viability compared to the DMSO control ([4]; 1 μM): significantly reduced cell viability
increase of overall survival, average [5]: 2-3 months

NNCCc1ccccc1 [phenelzine]
growth and proliferation of androgen-sensitive and castration-resistant human prostate cells [1]: inhibited

C#CCN[C@@H]1CCc2ccccc21 [rasagiline]
viability of LNCaP cells (LNCaP cells [2]; 1 mM, CellTiter-Glo): trend is also clearly observed
viability of LNCaP cells (LNCaP cells [2]; 10 mM, CellTiter-Glo): significant viability-reducing effect
viability of LNCaP cells, summary of the study (LNCaP cells [2]): significantly reduced
viability of PC3 cells (PC3 cells; 1 mM): significant viability-reducing effect
viability of PC3 cells (PC3 cells; 10 mM): significant viability-reducing effect
viability of PC3 cells, summary of the study (PC3 cells): significantly reduced

C#CCN(C)[C@H](C)Cc1ccccc1 [selegiline]
viability of PC3 cells, concentration dependence ([4]; 250 μM to 1 mM): concentration-dependent manner
viability of PC3 cells ([4]; 750 μM, Example 3 series): significant decrease in viability
viability of PC3 cells, effect of Example 1 ([4]; 1 mM, Example 3 series): reproduced
viability of LNCaP cells (LNCaP cells [2]; 1 mM, CellTiter-Glo): trend is also clearly observed
viability of LNCaP cells (LNCaP cells [2]; 10 mM, CellTiter-Glo): significant viability-reducing effect
viability of LNCaP cells, summary of the study (LNCaP cells [2]): significantly reduced
rate of tumor growth compared to the group treated with physiological saline (human PC3 xenograft): significantly reduced
viability of PC3 cells (PC3 cells; 1 mM): significant viability-reducing effect
viability of PC3 cells (PC3 cells; 10 mM): significant viability-reducing effect
viability of PC3 cells, summary of the study (PC3 cells): significantly reduced
